pEC50, pIC50, pKi: −log10 of the molar value. “Also recorded” adds a separate entry of the source. Values belong to the molecule of their own block, whether it stands above or below them.
What was measured:
[1] = target: T1, recombinant human ADSL (Homo sapiens, UniProt P30566); test: Screening of LOPAC 1280 compounds for ADSL inhibitors; format: biochemical; conditions: 2 µM compound, 0.2 µM ADSL, 0.2 mM S-AMP
T1 construct: made in house
T1 sequence (P30566 1-484): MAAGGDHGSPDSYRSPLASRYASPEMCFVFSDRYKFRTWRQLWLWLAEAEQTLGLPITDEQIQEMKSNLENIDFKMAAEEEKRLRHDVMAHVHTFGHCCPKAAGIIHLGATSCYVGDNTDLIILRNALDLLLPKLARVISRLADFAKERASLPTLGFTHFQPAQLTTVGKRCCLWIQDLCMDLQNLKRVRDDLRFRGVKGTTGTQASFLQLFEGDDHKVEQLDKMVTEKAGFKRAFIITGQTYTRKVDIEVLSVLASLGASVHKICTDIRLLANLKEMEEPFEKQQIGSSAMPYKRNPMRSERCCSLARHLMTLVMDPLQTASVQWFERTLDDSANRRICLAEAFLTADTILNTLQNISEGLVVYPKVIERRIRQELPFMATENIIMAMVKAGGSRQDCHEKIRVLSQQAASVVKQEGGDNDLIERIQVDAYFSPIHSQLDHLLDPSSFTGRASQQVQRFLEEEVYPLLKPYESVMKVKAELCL
Procedure: In each well of UV-transparent 384-well plates, a 45 μL solution containing 0.20 μM recombinant human ADSL and 2 μM screening compounds from the LOPAC 1280 library was placed. The reaction buffer contained 20 mM HEPES, pH 7.9, 50 mM KCl, 1 mM MgCl2, 1 mM DTT, and 1% (v/v) DMSO. Following a 30 min-long incubation at ambient temperature, the reaction was initiated by the addition of S-AMP (final: 0.20 mM). The reaction was monitored by measuring A280 every 10 min for 4 h at 37 °C.
To identify ADSL inhibitors, the effects of LOPAC® 1280 library compounds on the activity of recombinant human ADSL were measured (Figure 2A). […] ADSL activity was monitored by measuring changes in A280 for 4 h at 37 °C. Compounds inhibiting ADSL activity by more than three standard deviations (Z-score < −3, Figure 2A) were counted as hits.

[2] = target: T1, recombinant human ADSL; test: ADSL enzyme activity assay (A280); format: biochemical; conditions: for effect on ADSL in subsequent tests after the screen: follow-up of screening hits
Procedure: ADSL activity assays were performed as described in the literature. In brief, 0.60 mL solution containing recombinant human ADSL (0–2 μM), the test compound, 20 mM HEPES, pH 7.9, 50 mM KCl, 1 mM MgCl2, 1 mM DTT, and 1% DMSO was placed in a semi-micro quartz cuvette. This solution was kept at 37 °C for 30 min. The reaction was initiated by the addition of S-AMP or SAICAR to a final concentration of 0–2 mM (typically 0.20 mM). A280 was monitored every 5 s for 1 h using a Beckman DU650 spectrophotometer.

[3] = test system: ADSL in HeLa cells; test: Cellular SAICAR, AICAR, S-AMP and AMP levels by HILIC-HPLC-MS; format: cell-based, human; conditions: 12 h, triethylammonium salt form
Procedure: Cellular experiments and the measurement of nucleotides were carried out as we previously reported. […] The media were removed, and cells were washed five times with Dulbecco’s phosphate-buffered saline. Cells were lysed in ice-cold extraction solvent (95% methanol with 10 mM triethylammonium bicarbonate). The lysates were transferred to a centrifuge tube. Debris was removed by centrifugation at 150,000× g for 10 min at 4 °C. The supernatant was passed through Amicon Ultracel centrifugal filters (molecular weight cut-off 3 kDa). The filtrates were dried in vacuum and dissolved in 0.10 mL of extraction solvent. A 10 μL portion of this solution was subjected to HILIC-MS as we previously described. To measure cell proliferation, cells were detached by trypsin-EDTA and counted using a Moxi-Z cell counter as we previously described.
Next, we asked whether 1 inhibits ADSL in mammalian cells. […] Cells were lysed, and the amounts of SAICAR and S-AMP were measured by HILIC-HPLC-MS as we previously reported (Figure 6).

[4] = Permeability through an in vitro model of blood-brain barrier; format: in vitro ADME; conditions: Figure S7, n = 3
From the text: (1 picture or pasted object on this page, not shown here)

Structure (SMILES): O=C(Nc1ccccc1)c1cccc(C(=O)Nc2ccccc2)c1 [Compound 3, N, N’-diphenylisopthalamide]
inhibition of ADSL ([2]; concentrations tested up to 30 μM): did not inhibit ADSL

Structure (SMILES): O=C(Nc1cc(C(=O)Nc2ccc(S(=O)(=O)O)cc2S(=O)(=O)O)cc(C(=O)Nc2ccc(S(=O)(=O)O)cc2S(=O)(=O)O)c1)Nc1cc(C(=O)Nc2ccc(S(=O)(=O)O)cc2S(=O)(=O)O)cc(C(=O)Nc2ccc(S(=O)(=O)O)cc2S(=O)(=O)O)c1 [NF-449]
screening outcome (hit: Z-score < −3) [1]: might be an inhibitor of ADSL
mechanism of ADSL inhibition ([2]; Lineweaver-Burk plot): competitive
pKi ([2]; Lineweaver-Burk plot, read-out: Ki, inhibition of ADSL): 6.62
pIC50 ([2]; S-AMP as substrate (0.2 mM), read-out: IC50, inhibition of ADSL): 5.85

Structure (SMILES): N=C(NO)NCCC[C@H](N)C(=O)O [N^ω-hydroxyl-L-arginine]
screening outcome (hit: Z-score < −3) [1]: potential ADSL inhibitors
effect on ADSL in subsequent tests after the screen [2]: ADSL became aggregated

Second part, led by results:

screening outcome (hit: Z-score < −3) [1]: potential ADSL inhibitors
effect on ADSL in subsequent tests after the screen [2]: did not inhibit ADSL
Structure (SMILES): CCCCc1oc2ccccc2c1C(=O)c1cc(I)c(OCCN(CC)CC)c(I)c1 [amiodarone]

pEC50 ([3]; Homo sapiens, read-out: EC50, increase of cellular level of SAICAR): 6.40
Structure (SMILES): O=C(Nc1ccccc1S(=O)(=O)O)c1cccc(C(=O)Nc2ccccc2S(=O)(=O)O)c1 [Compound 1, 2,2’-(1,3-phenylenebis(carbonylimino))bisbenzenesulfonate]
effect on the cellular level of S-AMP and AMP [3]: less effect
increase of cellular level of SAICAR [3]: approximately 2.5 fold
level of AICAR, lower by [3]: approximately 30%
permeability through blood–brain barrier in vitro [4]: limited permeability; also recorded: comparable to the low -permeability standard

— PMC12641998, “Development of Cell-Permeable Adenylosuccinate Lyase Inhibitor” (Methods and Protocols, 2025)
